Data from the COVID Moonshot data (paper PMC11187573), “Identification of SARS-CoV-2 Mpro inhibitors through deep reinforcement learning for de novo drug design and computational chemistry approaches” (RSC Medicinal Chemistry, 2024).

How the values were obtained:
[1] = target: SARS-CoV-2 Main Protease (SARS-CoV-2) (UniProt P0DTD1)
[2] = target: SARS-CoV-2 Main Protease (SARS-CoV-2) (UniProt P0DTD1); remark: listed apart in the source

Compound	inhibition ([1]; 20.0 µM) [%]	inhibition ([1]; 50.0 µM) [%]	inhibition ([2]; 20.0 µM) [%]	inhibition ([2]; 50.0 µM) [%]	relative solubility at 20 uM	relative solubility at 100 uM	IC50 [1] [µM]	IC50 [2] [µM]
CNS(=O)(=O)c1ccc(C(C)NC(=O)NC(C)(C)C)cc1 (stereo not drawn)	-0.809	-0.25	0	0	1	1	–	–
C=CC(=O)N(c1ccc(C(C)(C)CC)cc1)C(C(=O)Nc1ccccc1Br)c1cccnc1 (stereo not drawn)	–	-11.5	0	8.03	1	1	–	–
Cc1ccc(S(=O)(=O)N2CCN(C(=O)c3cc(=O)[nH]c4cc(F)ccc34)CC2)c(C)c1	21.8	48.1	–	11.4	1	0.92	–	–
O=C(NCCN1CCN(c2ccccc2)CC1)NCc1ccccn1	–	12.5	0	0	0.99	0.99	–	–
C=CC(=O)N(c1ccc(C(C)(C)C)cc1)C(C(=O)Nc1ccc(F)cc1C)c1cccnc1 (stereo not drawn)	5.61	13.9	–	1.37	0.96	0.91	–	–
N#Cc1ccc(S(=O)(=O)N2CCN(C(=O)c3cc(=O)[nH]c4ccc(F)cc34)CC2)cc1	2.67	10.4	–	33.7	0.98	0.98	–	–
CS(=O)(=O)NCCCN1CCCc2ccc(S(N)(=O)=O)cc21	–	-23.8	0	0	1	1	–	–
Cc1cc(CC(=O)Nc2cnccc2C)[nH]n1	-4.28	0.404	–	4.87	1	1	–	–
Cc1ccncc1NC(=O)C(C)Cc1ccccc1 (stereo not drawn)	-54.9	-128	–	0	1	1	–	–
CS(=O)(=O)Cc1ccc(C(=O)Nc2cccnc2)o1	0.469	6.26	0	–	1	1	–	–
O=C(CCl)N1CCN(S(=O)(=O)c2cccc(F)c2)CC1	97.3	104	96.6	96.8	1	1	4.55	2.02
Cc1ccc(C)c(NC(=O)[C@H]2CNC(=O)C2)c1 (stereo in doubt)	-14.9	-9.38	–	0	0.98	0.98	–	–
COc1ccc(S(=O)(=O)N2CCN(C(=O)c3cc(=O)[nH]c4cc(F)ccc34)CC2)cc1	5.98	-3.27	–	0	0.87	0.9	–	–
O=C1NC(c2cccnc2)C(=O)N1c1cccc(Cl)c1 (stereo not drawn)	18.1	33.9	–	69.6	0.85	0.91	–	57.8
O=C(NCC(O)Cn1ccnn1)c1ccccc1OC1CCC1 (stereo not drawn)	-1.11	2.04	0	0	1	1	–	–
Cc1ccncc1NC(=O)CCc1ccccn1	-0.904	-28.6	–	11.4	1	1	–	–
O=C(CCl)Nc1nc2c(S(=O)(=O)NCCc3ccccc3)cccc2s1	58	74.5	–	80.3	0.89	0.66	13.9	8.55
COc1c(NC(=O)Cc2cccc(Cl)c2Cl)c(C)nn1C	2.78	2.19	–	0	1	1.01	–	–
C=CC(=O)N(c1ccc(C2(C)CC2)cc1)C(C(=O)Nc1c(C)cccc1CC)c1cccnc1 (stereo not drawn)	–	20.9	0	20.4	0.8	0.68	–	–
C=CC(=O)N(c1ccc2ncsc2c1)C(C(=O)Nc1cccc(CC)c1)c1cccnc1 (stereo not drawn)	33.9	59.3	16.6	–	0.8	0.63	–	32
Cc1ccncc1NC(=O)CN(C)S(=O)(=O)c1cccc2cccnc12	43.4	17.3	0	-0.449	0.99	1	–	–
N#Cc1cccc(NC(=O)Nc2cccnc2)c1	6.21	10.3	0	–	1	1	–	–
CC(=O)N1CCN(C(=O)Cc2ccccn2)CC1	-0.517	3.52	0	0	1	1	–	–
CN(C(=O)Cn1nnc2ccccc21)c1ccc(Oc2ccc(C(F)(F)F)cn2)cc1	30.2	59.4	–	19.2	0.98	0.87	–	–
O=C(Nc1ccccc1OC1CCN(Cc2ccccc2)CC1)C1CCN(C(=O)CCl)CC1	6.3	16.5	–	-1.57	0.94	0.95	–	–

Compound	inhibition ([1]; 20.0 µM) [%]	inhibition ([1]; 50.0 µM) [%]	inhibition ([2]; 20.0 µM) [%]	inhibition ([2]; 50.0 µM) [%]	relative solubility at 20 uM	relative solubility at 100 uM	IC50 [1] [µM]	IC50 [2] [µM]
CC(=O)NCCc1c[nH]c2c(NCc3ccc4nc[nH]c4c3)cc(F)cc12	-13.7	12.1	–	-4.42	0.64	0.86	–	–
Cc1ccc(O)cc1NC(=O)C(C)(C)c1cccc(F)c1	1.12	-11	–	-0.631	1	0.92	–	–
CS(=O)(=O)NCCc1cccc(O)c1	-1.8	0.0445	-2.45	1.46	1	1	–	–
O=C(Nc1cnccc1Cl)c1cccc(Cl)c1	-2.3	3.23	0	10.5	1	1	–	–
Cc1ccncc1NC(=O)C(C)c1cccc(C#N)c1 (stereo not drawn)	35.4	61.4	21	58.4	1	1	–	45.3
C=CC(=O)N1CCN(Cc2cccc3ccccc23)CC1	-4.32	3.35	0	–	1	0.99	–	–
CCOc1ccccc1OC1CCN(C(=O)c2cc(=O)[nH]c3cc(F)ccc23)C1 (stereo not drawn)	13.4	21.4	–	0	1	0.99	–	–
COCc1cc(Cl)cc(CN2CCN(C(=O)CCl)CC2)c1	97.6	99.9	–	118	0.98	0.99	–	1.31
COc1ccccc1OCC(C)NC(=O)c1cc(=O)[nH]c2cc(F)ccc12 (stereo not drawn)	46.9	78.4	–	22	1	0.99	33	–
Cc1cc(Br)cc2c1N(CCBr)C(=O)C2=O	-3.94	-4.22	–	95.6	1	1	–	16.7
O=C(Nc1nnc(-c2ccccn2)o1)C1CCN(S(=O)(=O)c2ccc(F)cc2)CC1	3.87	-71	–	0	0.95	0.96	–	–
O=C(NC(Cc1ccccc1)C(=O)NCc1ccno1)OCc1ccccc1 (stereo not drawn)	–	50.6	0	0	0.98	0.85	–	–
C=CC(=O)N(c1ccc(C(C)(C)C)cc1)C(C(=O)NC1CCC1)c1cccnc1 (stereo not drawn)	6.16	12	0	51.9	1	1	–	–
COc1ncccc1N(C)C(=O)C1CCOc2ccc(Cl)cc21 (stereo not drawn)	-2.61	2.54	–	0	1	0.98	–	–
CCOC(=O)[C@H]1O[C@@H]1C(=O)N[C@@H](CC(C)C)C(=O)NCCC(C)C (stereo in doubt)	-1.54	-5.21	–	0	1	1	–	–
C=CC(=O)N(c1ccc(C(F)(F)F)cc1)C(C(=O)NCCc1cccc(F)c1)c1cccnc1 (stereo not drawn)	50.7	72.7	–	100	0.99	0.94	–	6.12
Cc1nnc(NC(=O)Cc2cccc(Cl)c2F)s1	1.02	-14.8	–	0	0.99	0.68	–	–
CN1CCC(C(=O)NC2CCCCC2NC(=O)C2CCCCC2)CC1 (stereo not drawn)	-19.4	-19.4	0	–	1	1.01	–	–
CC(c1cccc(NC(=O)Cc2cnccc2Cl)c1)N1CCOCC1 (stereo not drawn)	2.12	3.92	0	3.87	0.97	0.92	–	–
Cc1[nH]c2ccccc2c1/C=N/N(C)C(=O)c1ccc2c(c1)OCO2	2.2	-13.4	–	-6.66	0.78	0.77	–	–
CC(C)(C)CC(=O)C(C#N)C(=O)Nc1ccccc1 (stereo not drawn)	–	21.6	2.52	0	1	1	–	–
O=C(CCl)N1CCN(Cc2cc(Cl)cc(Cl)c2)CC1	76.9	69.1	100	100	1	1	–	0.475
C=CC(=O)N1CCN(Cc2c[nH]c3ccc(C#N)cc23)CC1	-36.2	-27.1	0	0	0.97	0.92	–	–
Cc1ccncc1NC(=O)Cc1cccc(S(N)(=O)=O)c1	11.1	6.23	–	11.5	0.99	0.99	–	–
C=CC(=O)N(c1ccc(C(C)C)nc1)C(C(=O)Nc1ccc(OC)cc1C)c1cccnc1 (stereo not drawn)	6.56	10.4	0	–	0.98	0.93	–	–

Compound	inhibition ([1]; 20.0 µM) [%]	inhibition ([1]; 50.0 µM) [%]	inhibition ([2]; 20.0 µM) [%]	inhibition ([2]; 50.0 µM) [%]	relative solubility at 20 uM	relative solubility at 100 uM	IC50 [1] [µM]	IC50 [2] [µM]
C=CC(=O)N(c1ccc2ncsc2c1)C(C(=O)NC(C)(C)C)c1cccnc1 (stereo not drawn)	9.29	0.772	0	–	1	1	–	–
O=C(C1CCN(c2ccncc2)CC1)N1CCCCC1	–	-18.6	0	-0.3	0.99	1	–	–
COc1ccc(C2CC(c3ccccc3)=NN2C(=O)CCl)cc1OC (stereo not drawn)	100	99.6	–	100	0.99	0.85	–	0.421
Cc1ccncc1NC(=O)Cn1ccc2ccc(Cl)cc21	30.6	27	–	77.4	0.99	0.98	–	20
CC(=O)NCc1cccc(NC(=O)Cc2cncnc2)c1	3.15	6.22	–	0	1.01	1	–	–
O=C(Cc1cccc(Cl)c1)Nc1nnn[nH]1	23.3	49.1	–	27.2	1	1	–	–
Cc1nnc(CC(=O)Nc2cccnc2)s1	-1.16	-0.0294	-1.82	0	1	0.99	–	–
O=C(Nc1cccnc1)Nc1ccc(Cl)s1	8.85	23.7	0	35.7	0.99	0.95	–	–
C=CC(=O)N(c1ccc(C2(C)CC2)cc1)C(C(=O)Nc1cccc(CC)c1)c1cccnc1 (stereo not drawn)	–	21	4.53	47.2	0.86	0.65	–	–
CCN(Cc1cccc(-c2ccncc2)c1)C(=O)Cc1noc2ccccc12	-25.4	-15.8	0	–	0.98	0.85	–	–
Cc1ccncc1NC(=O)Cc1ccc(S(N)(=O)=O)cc1	4.76	10.9	6.42	-0.94	1	1	–	–
O=C(NCc1ccno1)c1ccccc1Oc1ccc(Cl)cc1Cl	-13	-12.4	0	0	1	0.96	–	–
O=C(CCl)N1CCN(Cc2cccc(Cl)c2)CC1	–	108	99.8	100	1	1	2.54	0.545
Cc1nnc(CNC(=O)C2CCOc3ccc(Cl)cc32)n1C1CC1 (stereo not drawn)	6.91	0.282	–	0	1	1	–	–
O=C(Cc1c[nH]c2ncccc12)N(Cc1c(F)cccc1Cl)c1ccc2[nH]c(=O)[nH]c2c1	6.29	-1.08	–	12.4	0.95	0.88	–	–
COc1ccc2[nH]cc(CCNS(C)(=O)=O)c2c1	-4.19	-4.39	0	–	0.92	0.86	–	–
NS(=O)(=O)c1ccc2c(c1)CN(CC1CCN(C(=O)CCl)CC1)CC2	30.8	60.3	–	91.1	1	1	–	31.2
Cc1ccncc1NC(=O)CC(C)C(C)C (stereo not drawn)	-5.58	29.2	–	6.99	1	1	–	–
C=CC(=O)N1CCC(N(Cc2ccccc2C#N)C2CCC(O)CC2)CC1 (stereo not drawn)	-64	-8.67	–	0	0.99	0.99	–	–
C=CC(=O)N(c1ccc(C(F)(F)F)cc1)C(C(=O)Nc1c(C)cccc1CC)c1cccnc1 (stereo not drawn)	22.3	38.6	23.9	–	0.89	0.79	–	–
Cc1c(C(=O)NC(CC(=O)O)c2cccc(Cl)c2)cnc2ccccc12 (stereo not drawn)	-13	6.12	–	8.52	1	1	–	–
CCC(NC(=O)NCc1cnccn1)c1ccccc1OCC(=O)N1CCCC1 (stereo not drawn)	–	7.61	0	9.2	1	1	–	–
O=C(Nc1cccnc1)Nc1cncc(Cl)c1	–	16.8	0	-0.075	1	1	–	–
CN(C(=O)Cc1noc2ccccc12)c1ccc(NC(=O)OC(C)(C)C)cc1	-14.5	-11.9	0	–	0.98	0.7	–	–
CCN1CCN(Cc2ccccc2CNC2=NC[C@@H](C3CCCC3)N2)CC1 (stereo in doubt)	-1.16	-20.8	–	-30.8	1	1	–	–
